# What was measured:
# [1] = tested on: clone 5 (RNA, aptamer) GGAGCUCAGCCUUCACUGCGGUUGCCCUCCGUGCUUCAUGCUUCCCUGCUUCGGCAGUCGCGGUAAACCGUAGAGAAAGUUGAGGCACCACGGUCGGAUCCAC; experiment: fluorescence increase titration; conditions: 125 mM KCl, 5 mM MgCl2; 20 mM Hepes pH 7.4, 25°C; probe 1 µM
# [2] = tested on: wt-DNB aptamer (RNA, aptamer) GGAGCUCAGCCUUCACUGCCUUAUUCCGGACGCCGGGCCCGAAUGCUGCUACGGCAGUCGAAGACAACAUCGCGCCCUUCGGAGGCACCACGGUCGGAUCCAC; experiment: fluorescence increase titration; conditions: 125 mM KCl, 5 mM MgCl2; 20 mM Hepes pH 7.4, 25°C; probe 100 nM
# [3] = tested on: DNB aptamer (RNA, aptamer) GGUGCCUUAUUCCGGACGCCGGGCCCGAAUGCUGCUACGGCAGUCGAAGACAACAUCGCGCCCUUCGGAGGCACC; experiment: fluorescence increase titration; conditions: 125 mM KCl, 5 mM MgCl2; 20 mM Hepes pH 7.4, 25°C; probe 100 nM
# [4] = tested on: DNB aptamer (RNA, aptamer) GGUGCCUUAUUCCGGACGCCGGGCCCGAAUGCUGCUACGGCAGUCGAAGACAACAUCGCGCCCUUCGGAGGCACC; experiment: fluorescence competition; conditions: 125 mM KCl, 5 mM MgCl2; 20 mM Hepes pH 7.4; displaces SR-DN (1 μM) from DNB (100 nM); calculated from IC50
KD [1],KD [2],KD [3],KD [4],SMILES
7.77 ± 0.9 µM,,0.35 ± 0.05 µM,,CN(C)c1ccc2c(-c3ccc(C(=O)NCCOCCOCCNc4ccc([N+](=O)[O-])cc4[N+](=O)[O-])cc3C(=O)[O-])c3ccc(=[N+](C)C)cc-3oc2c1
,,4.48 ± 0.60 µM,,N=c1ccc2c(-c3ccc(C(=O)NCCOCCOCCNc4ccc([N+](=O)[O-])cc4[N+](=O)[O-])cc3C(=O)O)c3ccc(N)cc3oc-2c1
27.2 ± 3.2 µM,,8.55 ± 0.53 µM,,O=C(NCCOCCOCCNc1ccc([N+](=O)[O-])cc1[N+](=O)[O-])c1ccc(-c2c3ccc(=O)cc-3oc3cc(O)ccc23)c(C(=O)O)c1

# Further lines, the compound ahead of its results:
SMILES,KD [1],KD [2],KD [3],KD [4]
CCN(CC)c1ccc2c(-c3ccc(S(=O)(=O)NCCOCCOCCNc4ccc([N+](=O)[O-])cc4[N+](=O)[O-])cc3S(=O)(=O)[O-])c3ccc(=[N+](CC)CC)cc-3oc2c1,20.1 ± 3.9 µM,1.44 ± 0.08 µM,0.80 ± 0.10 µM,
NCCOCCOCCNc1ccc([N+](=O)[O-])cc1[N+](=O)[O-],,,,0.1 ± 0.014 µM
O=[N+]([O-])c1ccc(NCCOCCOCCNS(=O)(=O)c2ccc(C3=c4cc5c6c(c4Oc4c3cc3c7c4CCCN7CCC3)CCC[N+]=6CCC5)c(S(=O)(=O)[O-])c2)c([N+](=O)[O-])c1,52.6 ± 17.8 µM,,18.0 ± 1.8 µM,
